Earlier results as cited in patent US20100196504A1, “SYNERGISTIC ACTIVE PREPARATIONS COMPRISING 1,2-DECANEDIOL AND FURTHER ANTIMICROBIAL ACTIVE COMPOUNDS” (SYMRISE GmbH & Co. KG, priority 2007, published 2010).

Assays:
Propionibacterium acnes = conditions: microorganism causing acne
Corynebacterium acnes = conditions: microorganism causing body odour
[1] = test system: Staphylococcus epidermidis; conditions: microorganism causing body odour

Measured: antimicrobial activity

CCCCCCCCC(O)CO (stereo not drawn) [1,2-decanediol]
antimicrobial activity: all assays above
